Values quoted from earlier work as cited in the Kinase Knowledgebase extract (Sharma et al. 2016).

Molecular target: MAPK14 (human) (UniProt Q16539)
Assay: Assessment of MAPK14 Kinase Activity

Chain of MAPK14 (human) (Q16539 whole entry, looked up): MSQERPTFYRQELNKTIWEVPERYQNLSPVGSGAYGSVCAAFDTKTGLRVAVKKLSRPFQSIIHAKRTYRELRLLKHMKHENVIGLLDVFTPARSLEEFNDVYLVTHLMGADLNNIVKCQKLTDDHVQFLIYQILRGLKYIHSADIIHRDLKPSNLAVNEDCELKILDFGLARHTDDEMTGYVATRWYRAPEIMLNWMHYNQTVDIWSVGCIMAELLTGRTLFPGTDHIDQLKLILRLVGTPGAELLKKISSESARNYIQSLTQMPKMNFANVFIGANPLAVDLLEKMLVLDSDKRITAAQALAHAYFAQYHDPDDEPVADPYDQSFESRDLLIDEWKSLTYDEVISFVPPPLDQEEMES

Row | Structure (SMILES) | IC50
1 | Cn1c(=O)cc(NC2CCOCC2)c2cnn(-c3cccc(F)c3)c21 | 1000 nM
2 | Cc1ccc(C(=O)NC2CC2)cc1-c1cc2cnn(-c3ccccc3C)c2n(C)c1=O | 1.9 nM
3 | Cc1ccc(C(=O)NC2CC2)cc1-c1cc2cnn(-c3ccccc3Cl)c2n(C)c1=O | 0.899 nM
4 | CCn1c(=O)c(-c2cc(C(=O)NC3CC3)ccc2C)cc2cnn(-c3ccc(F)cc3F)c21 | 0.6 nM
5 | Cc1ccc(C(=O)NC2(C)CC2)cc1-c1cc2cnn(-c3c(F)cccc3F)c2n(C)c1=O | 1.7 nM
6 | Cn1c(=O)cc(Nc2ccc(F)cc2F)c2cnn(-c3ccc(F)cc3F)c21 | 1000 nM
7 | Cn1c(=O)cc(Nc2ccc(F)cc2)c2cnn(-c3c(F)cccc3F)c21 | 1000 nM
8 | Cc1ccc(C(N)=O)cc1-c1cc2cnn(-c3c(F)cccc3F)c2n(C)c1=O | 1.5 nM
9 | Cc1ccc(C(=O)NC2CC2)cc1-c1cc2cnn(-c3cc(F)ccc3F)c2n(C)c1=O | 1.9 nM
10 | CNc1noc2c(-c3cc4cnn(-c5c(F)cccc5F)c4n(C)c3=O)c(C)ccc12 | 2 nM
11 | Cc1ccc(C(=O)NC2CC2)cc1-c1cc2cnn(-c3ncccc3C(F)(F)F)c2n(C)c1=O | 2.3 nM
12 | Cc1c(F)cc(C(=O)NC2CC2)cc1-c1cc2cnn(-c3c(F)cccc3F)c2n(C)c1=O | 0.8 nM
13 | Cc1ccc(C(=O)Nc2ccon2)cc1-c1cc2cnn(-c3c(F)cccc3F)c2n(C)c1=O | 1 nM
14 | Cc1ccc(C(=O)O)cc1Nc1cc(=O)n(C)c2c1cnn2-c1ccc(F)cc1F | 1000 nM
